From patent US8048862B2, “Macrocyclic inhibitors of hepatitis C virus replication” (priority 2008, dated 2011)
pEC50, pIC50: −log10 of the molar value.

Columns and labels:
[1] = target: NS3/NS4 complexes (Hepatitis C virus genotype 1a, UniProt P27958); assay: NS3/NS4 inhibition activity (IC50); type: biochemical; settings: Table 3, read-out: IC50
Method in brief: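 Buffer: 50 mM Tris-HCl (pH 7.5), 10 mM DTT, 25 μM NS4A peptide, 0.6 mM LDAO and 15% glycerol. Assays were run at 23 °C with preformed NS3/NS4 complex, and the compound concentration giving inhibition was derived as an IC50.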

[2] = system: hepatitis C replicon; assay: hepatitis C replicon EC50; type: cell-based; settings: Hepatitis C virus; Table 3; hepatitis C replicon; read-out: EC50
From the text: NS3-NS4 inhibition activity can be determined using known assay methods.

NS3/NS4 complexes, sequence (P27958 1027-1657): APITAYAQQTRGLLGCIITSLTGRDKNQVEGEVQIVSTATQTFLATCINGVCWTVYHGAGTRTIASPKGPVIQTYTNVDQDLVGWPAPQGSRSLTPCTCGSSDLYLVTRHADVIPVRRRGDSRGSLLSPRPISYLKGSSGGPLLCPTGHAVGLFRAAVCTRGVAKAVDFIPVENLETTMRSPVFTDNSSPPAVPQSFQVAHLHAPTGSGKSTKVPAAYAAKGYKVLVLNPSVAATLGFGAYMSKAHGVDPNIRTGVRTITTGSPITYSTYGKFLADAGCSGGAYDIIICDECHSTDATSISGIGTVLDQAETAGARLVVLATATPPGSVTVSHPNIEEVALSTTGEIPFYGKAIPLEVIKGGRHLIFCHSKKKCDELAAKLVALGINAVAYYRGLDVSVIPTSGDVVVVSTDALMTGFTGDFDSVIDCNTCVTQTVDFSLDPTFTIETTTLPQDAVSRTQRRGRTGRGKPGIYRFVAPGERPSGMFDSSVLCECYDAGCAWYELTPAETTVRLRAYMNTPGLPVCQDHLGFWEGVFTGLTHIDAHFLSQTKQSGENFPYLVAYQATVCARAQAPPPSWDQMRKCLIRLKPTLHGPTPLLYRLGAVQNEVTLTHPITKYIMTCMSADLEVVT
NS3/NS4 complexes, sequence (P27958 1658-1711): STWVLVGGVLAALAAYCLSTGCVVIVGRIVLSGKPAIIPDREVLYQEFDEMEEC

## CC(C)Cn1c(O[C@@H]2C[C@H]3C(=O)N[C@]4(C(=O)NS(=O)(=O)N(C)C)C[C@H]4/C=C\CCCCC[C@H](NC(=O)OC(C)(C)C)C(=O)N3C2)nc2ccccc21 [Compound 1129]
[1]
  pIC50: > 8.00
[2]
  pEC50: > 8.00

## CN(C)S(=O)(=O)NC(=O)[C@@]12C[C@H]1/C=C\CCCCC[C@H](NC(=O)OC(C)(C)C)C(=O)N1C[C@H](Oc3nc4ccccc4n3C)C[C@H]1C(=O)N2 [Compound 1130]
[1]
  pIC50: > 8.00
[2]
  pEC50: > 8.00

## CC(C)n1c(O[C@@H]2C[C@H]3C(=O)N[C@]4(C(=O)NS(=O)(=O)N(C)C)C[C@H]4/C=C\CCCCC[C@H](NC(=O)OC(C)(C)C)C(=O)N3C2)nc2ccccc21 [Compound 1131]
[1]
  pIC50: > 8.00
[2]
  pEC50: > 8.00

## CCn1c(O[C@@H]2C[C@H]3C(=O)N[C@]4(C(=O)NS(=O)(=O)N(C)C)C[C@H]4/C=C\CCCCC[C@H](NC(=O)OC(C)(C)C)C(=O)N3C2)nc2ccccc21 [Compound 1132]
[1]
  pIC50: > 8.00
[2]
  pEC50: > 8.00

## CC(C)n1c(O[C@@H]2C[C@H]3C(=O)N[C@]4(C(=O)NS(=O)(=O)N(C)C)C[C@H]4/C=C\CCCCC[C@H](NC(=O)OC(C)(C)C)C(=O)N3C2)nc2cc(F)ccc21 [Compound 1133]
[1]
  pIC50: > 8.00
[2]
  pEC50: > 8.00

## CC(C)n1c(O[C@@H]2C[C@H]3C(=O)N[C@]4(C(=O)NS(=O)(=O)N(C)C)C[C@H]4/C=C\CCCCC[C@H](NC(=O)OC(C)(C)C)C(=O)N3C2)nc2cccc(F)c21 [Compound 1134]
[1]
  pIC50: > 8.00
[2]
  pEC50: > 8.00

## CC(C)n1c(O[C@@H]2C[C@H]3C(=O)N[C@]4(C(=O)NS(=O)(=O)N(C)C)C[C@H]4/C=C\CCCCC[C@H](NC(=O)OC(C)(C)C)C(=O)N3C2)nc2c(F)cccc21 [Compound 1135]
[1]
  pIC50: > 8.00
[2]
  pEC50: > 8.00

## CC(C)n1c(O[C@@H]2C[C@H]3C(=O)N[C@]4(C(=O)NS(=O)(=O)N(C)C)C[C@H]4/C=C\CCCCC[C@H](NC(=O)OC(C)(C)C)C(=O)N3C2)nc2ccc(F)cc21 [Compound 1136]
[1]
  pIC50: > 8.00
[2]
  pEC50: > 8.00
